In a melting point compilation (Tetko et al.):

| SMILES | melting point |
| --- | --- |
| COc1ccc(-c2nn(CCC#N)cc2C(=O)O)cc1[N+](=O)[O-] | 190 to 192 °C |
| O=C(O)C1CCCN1c1ncccn1 (centres undefined) | 139 to 141 °C |
| O=C(O)c1cnc(-c2ccsc2)s1 | 208 to 210 °C |
| O=C(NCc1ccccn1)OCC(F)(F)F | 50 to 52 °C |
| COc1ccc(NS(=O)(=O)c2ccc(N)c(N)c2)cc1 | 163 to 165 °C |
| COc1ccccc1C(=O)Nc1ccc(O)cc1 | 172 to 174 °C |
| O=C(O)c1nccnc1Sc1ccccc1 | 154 to 156 °C |
| CC(CC(=O)O)(CC(=O)O)c1ccccc1 | 136 to 138 °C |
| Clc1cccc(-c2noc(Cl)n2)c1 | 44 to 46 °C |
| Cc1ccc(-c2cc(C(=O)O)n[nH]2)s1 | 209 to 211 °C |
| CC(C)(C)OC(=O)NCC1(C(=O)O)CCCC1 | 123 to 125 °C |
| CC(C(=O)O)n1nnnc1C(C)(C)C (centres undefined) | 171 to 173 °C |
| CC(C)(C)OC(=O)N1CCC(O)(c2ccccc2CO)CC1 | 106 to 108 °C |
| C=CC(=O)NCC1CCCCC1 | 47 to 49 °C |
| CC(=O)Nc1ccc(C(N)=S)cc1 | 239 to 241 °C |
| N#CCC1CC2=C(CCCC2=O)O1 (centres undefined) | 104 to 106 °C |
| OCc1c(Cl)nc2sccn12 | 174 to 176 °C |
| O=C(O)CCc1nc2ccccc2s1 | 97 to 99 °C |
| O=C(O)c1cnn(-c2ccccc2)c1Br | 214 to 216 °C |
| O=C(Nc1ccccc1Cl)OCC(F)(F)F | 44 to 46 °C |
| NCCCc1c[nH]c2ccccc12 | 62 to 64 °C |
| CC(C)COc1cccc(C(=O)O)c1 | 85 to 89 °C |
| Cn1cnnc1-c1ccc(N)cc1 | 256 to 258 °C |
| CN(C)S(=O)(=O)c1cccc(C(=O)NN)c1 | 149 to 151 °C |

| SMILES | melting point |
| --- | --- |
| O=C(O)CN1C(=O)Cc2ccccc2C1=O | 246 to 248 °C |
| COC(=O)CCCNc1nc2ccccc2s1 | 114 to 116 °C |
| CC(Cl)C(=O)N1CC(=O)Nc2cc(C(F)(F)F)ccc21 (centres undefined) | 152 to 154 °C |
| CCNC(=O)c1cc(Cl)ccn1 | 60 to 62 °C |
| Cc1ccccc1CCNC(=O)C(C)Cl (centres undefined) | 59 to 61 °C |
| CCC1(CC)NC(=O)NC1=O | 180 to 182 °C |
| Cc1ccc(N)cc1NC(=O)CN1CCCCC1 | 108 to 110 °C |
| CC(Cl)c1nc2scc(-c3ccccc3)c2c(=O)[nH]1 (centres undefined) | 165 to 167 °C |
| NC(C(=O)O)(c1cccc(C(F)(F)F)c1)C(F)(F)F (centres undefined) | 119 to 121 °C |
| O=S(=O)(c1ccc(O)cc1)N1CCCCC1 | 130 to 132 °C |
| O=C(O)c1ccc(O)cc1F | 202 to 204 °C |
| Cc1nnc(-c2ccc(C(=O)O)cc2)n1C | 269 to 271 °C |
| O=S(=O)(Cl)c1ccc2ncccc2c1 | 87 to 89 °C |
| Nc1nc(-c2ccc([N+](=O)[O-])cc2)no1 | 294 to 296 °C |
| C#CCOc1ccc(C=O)cc1 | 75 to 77 °C |
| O=C(O)c1ccc(OC2CCCC2)nc1 | 165 to 167 °C |
| CC(=O)NC1CCCN(C(=O)CCl)C1 (centres undefined) | 110 to 112 °C |
| O=C(O)Cn1[nH]c(=O)c2ccccc2c1=O | 272 to 274 °C |
| O=C(O)c1ccn(-c2cccc(C(F)(F)F)c2)n1 | 155 to 157 °C |
| COC(=O)COc1ccc(N)c(C)c1 | 104 to 106 °C |
| NC(CN1CCC(O)CC1)=NO | 182 to 184 °C |
| Cc1ccc(C(=O)NCC(=O)O)s1 | 66 to 68 °C |
| CSc1ncc[nH]1 | 129 to 131 °C |
| Cc1cccc(C(C)C)c1NC(=O)C(C)Cl (centres undefined) | 126 to 128 °C |

| SMILES | melting point |
| --- | --- |
| O=C(c1ccc(S(=O)(=O)Cl)cc1)N1CCOCC1 | 110 to 112 °C |
| CCOC(=O)c1sc2nc(CS(=O)(=O)CC(=O)O)[nH]c(=O)c2c1C | 277 to 279 °C |
| Cn1c(S)nnc1Cc1cccs1 | 157 to 161 °C |
| Cn1cc(C(=O)O)c(C(F)F)n1 | 199 to 201 °C |
| Nc1cccc2[nH]ncc12 | 145 to 147 °C |
| Clc1ccnc2cc(Br)ccc12 | 99 to 101 °C |
| CC(CSc1ccc(F)cc1)C(=O)O (centres undefined) | 61 to 63 °C |
| CC(C)(C)NS(=O)(=O)c1ccc(N)nc1 | 146 to 148 °C |
| CN1N=C(c2ccncc2)CC1=O | 209 to 211 °C |
| CCCC(=O)Nc1nc2ccc(N)cc2s1 | 182 to 184 °C |
| Cc1cccc(-n2cc(C(=O)CCl)nn2)c1 | 141 to 143 °C |
| CCN1C(=C2C=NN(C)C2=N)Nc2ccccc21 | 111 to 113 °C |
| O=C(O)c1cccn1Cc1cccnc1 | 172 to 174 °C |
| O=c1[nH]c2ccsc2c(=O)o1 | 218 to 220 °C |
| CN1CCN(C(N)=S)CC1 | 179 to 181 °C |
| O=C(O)CNC(=O)/C=C/c1ccccc1 | 191 to 193 °C |
| COCCn1cc(S(=O)(=O)Cl)cn1 | 35 to 37 °C |
| O=S(=O)(Cl)c1cn[nH]c1 | 99 to 101 °C |
| COc1ccccc1-n1cc(S(N)(=O)=O)cn1 | 143 to 145 °C |
| Cc1nccn1-c1cc(C#N)ccn1 | 194 to 196 °C |
| Nc1nccc(-c2ccc([N+](=O)[O-])cc2)n1 | 217 to 219 °C |
| Cc1cc([N+](=O)[O-])c(S(=O)(=O)Cl)cc1C | 79 to 81 °C |
| O=C(O)CNC(=O)C12CC3CC(CC(C3)C1)C2 | 145 to 147 °C |
| CNCc1nc(-c2ccccc2)c[nH]1 | 117 to 119 °C |

| SMILES | melting point |
| --- | --- |
| C#CCNC(=O)Nc1ccccc1Cl | 173 to 175 °C |
| O=C(O)CCn1cc([N+](=O)[O-])cn1 | 143 to 145 °C |
| C/C(=N\O)c1ccc(-c2ccc(F)cc2)s1 | 139 to 141 °C |
| O=C(O)c1cccc2c3c([nH]c12)CCCC3 | 190 to 192 °C |
| COc1ccccc1NC1=NCCCS1 | 83 to 85 °C |
| Cc1ccc2c(Cl)cc(Cl)c(OCC(=O)O)c2n1 | 209 to 211 °C |
| CC(CC(=O)O)NC1=NS(=O)(=O)c2ccccc21 (centres undefined) | 245 to 247 °C |
| O=C(O)c1nccnc1-c1nc2ccccc2s1 | 188 to 190 °C |
| O=C(O)Cc1ccc(S(=O)(=O)CCO)cc1 | 99 to 101 °C |
| Nc1cc(C(=O)O)cc(C(F)(F)F)c1 | 141 to 146 °C |
| OCc1nc2cc(C(F)(F)F)ccc2s1 | 96 to 98 °C |
| O=C(O)CNC(=O)c1ncccc1O | 234 to 236 °C |
| CC(C)(C)OC(=O)NCCCn1ccc2cc(C(=O)O)ccc21 | 172 to 174 °C |
| c1cc2c(cn1)NCCN2 | 135 to 137 °C |
| CCC(C)(C#N)NC(=O)c1ccccc1 (centres undefined) | 138 to 140 °C |
| O=C(Nc1ccccn1)c1cc2ccccc2cc1O | 236 to 238 °C |
| O=C(Cc1ccc(Br)cc1)NC(C(=O)O)c1ccccc1 (centres undefined) | 177 to 179 °C |
| Cc1ccc(S(=O)(=O)N2CCCCC2)cc1C(=O)O | 197 to 199 °C |
| N#Cc1cn(-c2ccc([N+](=O)[O-])cc2)nc1N | 278 to 280 °C |
| Clc1ccc(-c2n[nH]cc2Br)cc1 | 140 to 142 °C |
| N#Cc1cc([N+](=O)[O-])ccc1S(=O)(=O)Cl | 99 to 101 °C |
| CC(=O)Nc1cc(NC(C)=O)cc(C(=O)O)c1 | 187 to 189 °C |
| O=C(O)CNC(=O)c1cc(Cl)ccn1 | 188 to 190 °C |
| O=C(O)C1(O)CCSC1 (centres undefined) | 99 to 101 °C |

| SMILES | melting point |
| --- | --- |
| C=CC(=O)Nc1ccc(OCC)c(OC)c1 | 117 to 119 °C |
| Nc1cc(Cl)ccc1C(=O)Nc1ccc(Cl)cn1 | 157 to 159 °C |
| Clc1nc(-c2ccccn2)nc2scc(-c3ccccc3)c12 | 160 to 162 °C |
| O=C(CCl)NCCOc1ccc2c(c1)OCO2 | 75 to 77 °C |
| O=C(O)C1CCN(C(=O)N2CCOCC2)CC1 | 131 to 133 °C |
| CC(=O)c1ccc2cc(O)ccc2c1 | 170 to 172 °C |
| Cn1cc(C(=O)O)c(-c2ccccc2)n1 | 204 to 206 °C |
| CCOC(=O)Nc1ccc(Br)cc1N | 79 to 81 °C |
| Nc1ccn(CCc2ccccn2)n1 | 69 to 71 °C |
| Nc1ccc(N2CCOCC2)cc1C(F)(F)F | 74 to 76 °C |
| CC1CCC2(CC1)NC(=O)NC2=O (centres undefined) | 230 to 232 °C |
| O=C(O)C1=C(Nc2ccccc2)OCC1=O | 140 to 150 °C |
| NNc1nccc(N2CCOCC2)n1 | 146 to 148 °C |
| O=C(O)c1ccccc1Oc1ccc(Cl)cc1Cl | 161 to 163 °C |
| CNc1ccc2ccccc2n1 | 69 to 71 °C |
| CNS(=O)(=O)c1cccc(CN)c1 | 129 to 131 °C |
| C#CCNS(=O)(=O)c1cccc(C(=O)O)c1 | 168 to 172 °C |
| COc1cc(C)cc2c(C)c(C(=O)O)oc12 | 239 to 241 °C |
| Clc1ccnc2cc(Br)cnc12 | 182 to 184 °C |
| Clc1ccc(-c2nnc(Cl)c3ccccc23)cc1Cl | 219 to 221 °C |
| Clc1nc(C=Cc2ccc(Br)cc2)nc2sc3c(c12)CCCC3 | 168 to 170 °C |
| O=C(O)Cn1ncc2ccccc21 | 188 to 190 °C |
| CC1Nc2ccccc2NC1=O (centres undefined) | 130 to 132 °C |
| Cc1ocnc1C(=O)O | 127 to 129 °C |

| SMILES | melting point |
| --- | --- |
| O=C(O)c1cccc2[nH]ncc12 | 285 to 287 °C |
| CCC(=O)N1CCC(C(=O)O)C1 (centres undefined) | 118 to 120 °C |
| O=C(O)c1cc(F)ccc1I | 146 to 148 °C |
| Cc1ccc(OCCCC(=O)O)cc1 | 83 to 85 °C |
| COc1ccccc1-c1ccc(C=O)cc1 | 49 to 51 °C |
| OC1CCc2cc(Br)ccc21 (centres undefined) | 69 to 71 °C |
| O=C(O)c1cc(-c2ccco2)nc2cc(F)ccc12 | 272 to 274 °C |
| Cc1cc(N)ccc1C(=O)O | 154 to 156 °C |
| COCCS(=O)(=O)Cc1cccc(S(=O)(=O)Cl)c1 | 109 to 111 °C |
| OCCN1CCN(Cc2ccsc2)CC1 | 68 to 70 °C |
| O=C(OCc1ccccc1)N1CCCC1CS(=O)(=O)Cl (centres undefined) | 60 to 62 °C |
| COc1c(C(=O)O)c(C)nn1C | 172 to 174 °C |
| NC(=O)C1CCN(S(N)(=O)=O)CC1 | 228 to 230 °C |
| NC(=O)C(Cl)c1ccc(Br)cc1F (centres undefined) | 101 to 103 °C |
| NC1CCc2[nH]ncc2C1 (centres undefined) | 168 to 170 °C |
| COc1ccc(C(N)CC(=O)O)cc1 (centres undefined) | 237 to 239 °C |
| CCOC(=O)Cc1nnc(S)n1C | 135 to 137 °C |
| O=C(O)CNC(=O)c1cccc(F)c1 | 153 to 155 °C |
| CC(O)c1c(Cl)nc2sccn12 (centres undefined) | 107 to 109 °C |
| CC(C)CC(=O)N1Cc2ccccc2CC1C(=O)O (centres undefined) | 169 to 171 °C |
| CCn1c(NN)nc2ccccc2c1=O | 159 to 161 °C |
| Cc1nc(Cl)c2c(CC(C)C)csc2n1 | 60 to 62 °C |
| OCC1CSc2ccccc2O1 (centres undefined) | 89 to 91 °C |
| O=C(Cn1ccnc1)c1ccc(F)cc1 | 150 to 152 °C |
